Experimental data from patent US7566712B2, “Biaryl piperazinyl-pyridine analogues” (Neurogen Corporation, priority 2003, dated 2009).

The compounds below were run against T1, human capsaicin receptor (Homo sapiens, UniProt Q8NER1) (assay: Calcium mobilization assay, determination of antagonist activity (Example 6)). Details: Table II; IC50 determined as described in Example 6.
T1 construct: pBK-CMV expression construct encoding the full length human capsaicin receptor; expressed in transfected cells
Type: cell-based
Summary of the method: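 Antagonism measured as inhibition of capsaicin-evoked (final concentration = EC50, from an 8-point 1 nM–3 μM curve) Fluo-3 calcium signal in stable hVR1-HEK293 cells. Test compounds at 1–5 μM final, 0.5–6 h dark preincubation at room temperature. IC50 = concentration giving 50% reduction versus agonist-only response.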

T1 sequence (Q8NER1 whole entry): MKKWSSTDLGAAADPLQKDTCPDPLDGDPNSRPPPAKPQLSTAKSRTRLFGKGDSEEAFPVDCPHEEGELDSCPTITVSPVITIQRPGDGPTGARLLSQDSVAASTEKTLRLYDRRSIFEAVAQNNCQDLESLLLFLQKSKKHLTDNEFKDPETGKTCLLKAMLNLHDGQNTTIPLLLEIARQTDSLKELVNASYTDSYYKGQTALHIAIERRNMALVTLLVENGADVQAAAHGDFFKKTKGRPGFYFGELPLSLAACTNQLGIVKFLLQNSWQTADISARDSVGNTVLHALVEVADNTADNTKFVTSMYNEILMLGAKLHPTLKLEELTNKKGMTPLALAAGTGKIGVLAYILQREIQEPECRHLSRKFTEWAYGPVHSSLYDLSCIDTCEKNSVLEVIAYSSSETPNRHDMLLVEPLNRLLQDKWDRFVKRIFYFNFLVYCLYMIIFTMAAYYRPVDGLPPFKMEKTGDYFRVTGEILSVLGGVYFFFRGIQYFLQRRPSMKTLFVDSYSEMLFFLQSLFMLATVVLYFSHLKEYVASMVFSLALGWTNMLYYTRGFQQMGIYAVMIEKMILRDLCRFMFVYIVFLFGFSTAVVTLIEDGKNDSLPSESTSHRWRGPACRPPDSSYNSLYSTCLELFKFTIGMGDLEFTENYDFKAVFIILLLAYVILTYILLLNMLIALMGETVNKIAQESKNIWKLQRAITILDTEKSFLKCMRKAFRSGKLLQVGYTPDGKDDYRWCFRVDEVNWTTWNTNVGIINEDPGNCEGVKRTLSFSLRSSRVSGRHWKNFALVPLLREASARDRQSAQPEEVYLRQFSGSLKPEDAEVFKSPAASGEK

IC50, ≤ 1000 nM:
CCc1cccc(-c2cc(N3CCN(c4ncccc4C)C[C@H]3C)nc(N3CCOCC3)n2)c1 [Example 515, 4-{4-(3-ethylphenyl)-6-[(2R)-2-methyl-4-(3-methylpyridin-2-yl)piperazin-1-yl]pyrimidin-2-yl}morpholine]
NC1CCN(c2nc(-c3ccc(F)c(Cl)c3)cc(N3CCN(c4ncccc4C(F)(F)F)CC3)n2)CC1 [Example 569, 1-(4-(3-chloro-4-fluorophenyl)-6-{4-[3-(trifluoromethyl)pyridin-2-yl]piperazin-1-yl}pyrimidin-2-yl)piperidin-4-amine]
Cc1cccnc1N1CCN(c2cc(-c3cccc(OC(C)C)c3)nc(N3CCOCC3)n2)[C@H](C)C1 [Example 543, 4{4-(3-isopropoxyphenyl)-6-[(2R)-2-methyl-4-(3-methylpyridin-2-yl)piperazin-1-yl]pyrimidin-2-yl}morpholine]
FC(F)(F)c1ccc(-c2nc(N3CCOCC3)nc(N3CCN(c4ncccc4C(F)(F)F)CC3)n2)cc1 [Example 437, 2-morpholin-4-yl-4-[4-(trifluoromethyl)phenyl]-6-{4-[3-(trifluoromethyl)pyridin-2-yl]piperazin-1-yl}-1,3,5-triazine]
C[C@@H]1CN(c2ncccc2Cl)CCN1c1cc(-c2ccc(F)cc2)nc(N2CCOCC2)n1 [Example 487, 4-[4-[(2R)-4-(3-chloropyridin-2-yl)-2-methylpiperazin-1-yl]-6-(4-fluorophenyl)pyrimidin-2-yl]morpholine]
Cc1ccc(-c2cc(N3CCN(c4ncccc4Cl)C[C@H]3C)nc(N3CCOCC3)n2)cc1C [Example 508, 4-[4-[(2R)-4-(3-chloropyridin-2-yl)-2-methylpiperazin-1-yl]-6-(3,4-dimethylphenyl)pyrimidin-2-yl]morpholine]
CC(C)c1ccc(-c2cc(N3CCN(c4ncccc4Cl)C[C@H]3C)nc(N3CCOCC3)n2)cc1 [Example 505, 4-[4-[(2R)-4-(3-chloropyridin-2-yl)-2-methylpiperazin-1-yl]-6-(4-isopropylphenyl)pyrimidin-2-yl]morpholine]

Same assay, conditions: Table II; IC50 determined as described in Example 6 (antagonist activity, calcium mobilization)

IC50, ≤ 1000 nM:
C[C@H]1CN(c2nccnc2Cl)CCN1c1cc(-c2ccc(F)c(Cl)c2)nc(N2CCC[C@@H]2C)n1 [Example 987, 4-(3-chloro-4-fluorophenyl)-6-[(2S)-4-(3-chloropyrazin-2-yl)-2-methylpiperazin-1-yl]-2-[(2S)-2-methylpyrrolidin-1-yl]pyrimidine]
Cc1ccc(-c2cc(N3CCN(c4nccnc4Cl)C[C@H]3C)nc(N3CCC[C@H]3C)n2)cc1F [Example 981, 4-[(2R)-4-(3-chloropyrazin-2-yl)-2-methylpiperazin-1-yl]-6-(3-fluoro-4-methylphenyl)-2-[(2R)-2-methylpyrrolidin-1-yl]pyrimidine]

Same assay, conditions: Table II; determined as described in Example 6 (antagonist activity); "*" = 1 micromolar or less

IC50, ≤ 1000 nM:
Cc1cc(N)cnc1N1CCN(c2cc(-c3ccc(F)c(Cl)c3)nc(N3CCCC3C)n2)CC1 (centres unmarked) [Example 814, 6-{4-[6-(3-chloro-4-fluorophenyl)-2-(2-methylpyrrolidin-1-yl)pyrimidin-4-yl]piperazin-1-yl}-5-methylpyridin-3-amine]
CC(=O)Nc1cnc(N2CCN(c3cc(-c4ccc(F)c(Cl)c4)nc(N4CCCC4C)n3)CC2)c(C)c1 (centres unmarked) [Example 816, N-(6-{4-[6-(3-chloro-4-fluorophenyl)-2-(2-methylpyrrolidin-1-yl)pyrimidin-4-yl]piperazin-1-yl}-5-methylpyridin-3-yl)acetamide]
C[C@@H]1CN(c2nccnc2Cl)CCN1c1cc(-c2ccc(F)c(Cl)c2)nc(N2CCOCC2)n1 [Example 910, 4-{4-(3-chloro-4-fluorophenyl)-6-[(2R)-4-(3-chloropyrazin-2-yl)-2-methylpiperazin-1-yl]pyrimidin-2-yl}morpholine]
C[C@@H]1CN(c2nccnc2Cl)CCN1c1cc(-c2ccc(F)c(Cl)c2)nc(Cl)n1 (stereo in doubt) [Example 907, 2-chloro-4-(3-chloro-4-fluorophenyl)-6-[4-(3-chloropyrazin-2-yl)-2-methylpiperazin-1-yl]pyrimidine]
CC(=O)c1cccc(-c2cc(N3CCN(c4ncccc4Cl)C[C@H]3C)nc(N3CCCC3C)n2)c1 (stereo in doubt) [Example 888, 1-{3-[6-[4-(3-chloropyridin-2-yl)-2-methylpiperazin-1-yl]-2-(2-methylpyrrolidin-1-yl)pyrimidin-4-yl]phenyl}ethanone]

Same assay, conditions: Table II; determined as described in Example 6; class symbol

IC50, ≤ 1000 nM:
Fc1ccc(-c2nc(N3CCCCCC3)nc(N3CCN(c4ncccc4C(F)(F)F)CC3)n2)cc1Cl [Example 265, 1-(4-(3-chloro-4-fluorophenyi)-6-{4-[3-(trifluoromethyl)pyridin-2-yl]piperazin-1-yl}-1,3,5-triazin-2-yl)azepane]
Cc1cccc(-c2nc(N3CCCCCC3)nc(N3CCN(c4ncccc4C(F)(F)F)CC3)n2)c1 [Example 262, 1-(4-(3-methylphenyl)-6-{4-[3-(trifluoromethyl)pyridin-2-yl]piperazin-1-yl}-1,3,5-triazin-2-yl)azepane]

Same assay, conditions: determined as described in Example 6 (calcium mobilization, antagonist activity); Table II

IC50, ≤ 1000 nM:
CCN(CC)c1nc(-c2cccc(C)c2)cc(N2CCN(c3ncccc3C(F)(F)F)CC2)n1 [Example 604, N,N-diethyl-4-(3-methylphenyl)-6-{4-[3-(trifluoromethyl)pyridin-2-yl]piperazin-1-yl}pyrimidin-2-amine]
Cc1cc(-c2cc(N3CCN(c4ncccc4C(F)(F)F)CC3)nc(N(C)S(=O)(=O)C(C)C)n2)ccc1F [Example 691, N-(4-(4-fluoro-3-methylphenyl)-6-{4-[3-(trifluoromethyl)pyridin-2-yl]piperazin-1-yl}pyrimidin-2-yl)-N-methytpropane-2-sulfonamide]
CC1CCC(C)N1c1nc(-c2ccc(F)c(Cl)c2)cc(N2CCN(c3ncccc3Cl)CC2)n1 (centres unmarked) [Example 751, 4-(3-chloro-4-fluorophenyl)-6-[4-(3-chloropyridin-2-yl)piperazin-1-yl]-2-(2,5-dimethylpyrrolidin-1-yl)pyrimidine]
Cc1cc(-c2cc(N3CCN(c4ncccc4C(F)(F)F)CC3)nc(-c3ccncc3)n2)ccc1F [Example 689, 4-(4-fluoro-3-methylphenyl)-2-pyridin-4-yl-6-{4-[3-(trifluoromethyl)pyridin-2-yl]piperazin-1-yl}pyrimidine]
Fc1ccc(-c2cc(N3CCN(c4ncccc4C(F)(F)F)CC3)nc(OCc3ccccc3C(F)(F)F)n2)cc1F [Example 582, 4-(3,4-difluorophenyl)-2-{[2-(trifluoromethyl)benzyl]oxy}-6-{4-[3-(trifluoromethyl)pyridin-2-yl]piperazin-1-yl}pyrimidine]
CC(C)c1cc(-c2cc(N3CCN(c4ncccc4C(F)(F)F)CC3)nc(N3CCOCC3)n2)ccn1 [Example 592, 4-(4-(2-isopropylpyridin-4-yl)-6-{4-[3-(trifluoromethyl)pyridin-2-yl]piperazin-1-yl}pyrimidin-2-yl)morpholine]
CCN(CC)c1nc(-c2cccc(Cl)c2)cc(N2CCN(c3ncccc3C(F)(F)F)CC2)n1 [Example 597, 4-(3-chlorophenyl)-N,N-diethyl-6-{4-[3-(trifluoromethyl)pyridin-2-yl]piperazin-1-yl}pyrimidin-2-amine]
Cc1cc(-c2cc(N3CCN(c4ncccc4C(F)(F)F)CC3)nc(N3CCCCC3)n2)ccc1F [Example 675, 4-(4-fluoro-3-methylphenyl)-2-piperidin-1-yl-6-{4-[3-(trifluoromethyl)pyridin-2-yl]piperazin-1-yl}pyrimidine]
Fc1ccc(-c2cc(N3CCN(c4ncccc4C(F)(F)F)CC3)nc(N3CCC[C@H]3CN3CCCC3)n2)cc1Cl [Example 664, 4-(3-chloro-4-fluorophenyl)-2-[(2S)-2-(pyrrolidin-1-ylmethyl)pyrrolidin-1-yl]-6-{4-[3-(trifluoromethyl)pyridin-2-yl]piperazin-1-yl}pyrimidine]
CNC(=O)C1CCN(c2nc(-c3ccc(F)c(Cl)c3)cc(N3CCN(c4ncccc4C(F)(F)F)CC3)n2)CC1 [Example 653, 1-(4-(3-chloro-4-fluorophenyl)-6-{4-[3-(trifluoromethyl)pyridin-2-yl]piperazin-1-yl}pyrimidin-2-yl)-N-methylpiperidine-4-carboxamide]
Cc1cc(-c2cc(N3CCN(c4ncccc4Cl)CC3)nc(N(C)C(C)C)n2)ccc1F [Example 730, 4-[4-(3-chloropyridin-2-yl)piperazin-1-yl]-6-(4-fluoro-3-methylphenyl)-N-isopropyl-N-methylpyrimidin-2-amine]
CC1CC(=O)N1c1nc(-c2ccc(F)c(Cl)c2)cc(N2CCN(c3ncccc3C(F)(F)F)CC2)n1 (centres unmarked) [Example 740, 1-(4-(3-chloro-4-fluorophenyl)-6-{4-[3-(trifluoromethyl)pyridin-2-yl]piperazin-1-yl}pyrimidin-2-yl)-4-methylazetidin-2-one]
CC1CN(c2nc(-c3ccc(F)c(Cl)c3)cc(N3CCN(c4ncccc4C(F)(F)F)CC3)n2)CCN1 (centres unmarked) [Example 614, 4-(3-chloro-4-fluorophenyl)-2-(3-methylpiperazin-1-yl)-6-{4-[3-(trifluoromethyl)pyridin-2-yl]piperazin-1-yl}pyrimidine]
